Legend:
Assay in all cases: relative viability (nuclei count vs DMSO), 5 days (fraction); higher = more cells survive
Quizartinib + Navitoclax = compound: CC(C)(C)c1cc(NC(=O)Nc2ccc(-c3cn4c(n3)sc3cc(OCCN5CCOCC5)ccc34)cc2)no1 [Quizartinib] + CC1(C)CCC(c2ccc(Cl)cc2)=C(CN2CCN(c3ccc(C(=O)NS(=O)(=O)c4ccc(N[C@H](CCN5CCOCC5)CSc5ccccc5)c(S(=O)(=O)C(F)(F)F)c4)cc3)CC2)C1 [Navitoclax] (partner 0.5 µM)
Method in brief: (§1)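 After 5 days of treatment, lung cancer cells in 1536-well plates were fixed and stained in a single step (final 0.05% Triton X-100, 1% formaldehyde, 1 ug/ml Hoechst) and their nuclei counted on 4× images. Treatment had been applied by pin tool the day after seeding as one drug alone or as a fixed anchor-drug dose with five library-drug doses (not always all listed) in √10 steps. Relative viability is the nuclei count of treated wells divided by that of vehicle wells, and values are medians of duplicate plates.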

Quizartinib + Lapatinib = compound: CC(C)(C)c1cc(NC(=O)Nc2ccc(-c3cn4c(n3)sc3cc(OCCN5CCOCC5)ccc34)cc2)no1 [Quizartinib] + CS(=O)(=O)CCNCc1ccc(-c2ccc3ncnc(Nc4ccc(OCc5cccc(F)c5)c(Cl)c4)c3c2)o1 [Lapatinib] (partner 2 µM)
Method in brief: as §1

YM155 + Luminespib = compound: COCC[n+]1c2c(n(Cc3cnccn3)c1C)C(=O)c1ccccc1C2=O [YM155] + CCNC(=O)c1noc(-c2cc(C(C)C)c(O)cc2O)c1-c1ccc(CN2CCOCC2)cc1 [Luminespib] (partner 0.01 µM)
Method in brief: as §1

YM155 + Dasatinib = compound: COCC[n+]1c2c(n(Cc3cnccn3)c1C)C(=O)c1ccccc1C2=O [YM155] + Cc1nc(Nc2ncc(C(=O)Nc3c(C)cccc3Cl)s2)cc(N2CCN(CCO)CC2)n1 [Dasatinib] (partner 0.075 µM)
Method in brief: as §1

| Cell Line | relative viability (Quizartinib + Navitoclax; first compound 0.001 µM) | relative viability (Quizartinib + Navitoclax; first compound 0.003162 µM) | relative viability (Quizartinib + Navitoclax; first compound 0.01 µM) | relative viability (Quizartinib + Navitoclax; first compound 0.03162 µM) | relative viability (Quizartinib + Navitoclax; first compound 0.1 µM) | relative viability (Quizartinib + Lapatinib; first compound 0.001 µM) | relative viability (Quizartinib + Lapatinib; first compound 0.003162 µM) | relative viability (Quizartinib + Lapatinib; first compound 0.01 µM) | relative viability (Quizartinib + Lapatinib; first compound 0.03162 µM) | relative viability (Quizartinib + Lapatinib; first compound 0.1 µM) | relative viability (YM155 + Luminespib; first compound 0.002 µM) | relative viability (YM155 + Luminespib; first compound 0.006325 µM) | relative viability (YM155 + Luminespib; first compound 0.02 µM) | relative viability (YM155 + Luminespib; first compound 0.06325 µM) | relative viability (YM155 + Dasatinib; first compound 0.002 µM) | relative viability (YM155 + Dasatinib; first compound 0.006325 µM) | relative viability (YM155 + Dasatinib; first compound 0.02 µM) | relative viability (YM155 + Dasatinib; first compound 0.06325 µM) |
| --- | --- | --- | --- | --- | --- | --- | --- | --- | --- | --- | --- | --- | --- | --- | --- | --- | --- | --- |
| HCC-827 | 0.987 | 1.03 | 1.05 | 0.957 | 1.13 | 0.196 | 0.22 | 0.19 | 0.164 | 0.214 | 0.662 | 0.451 | 0.403 | 0.586 | 0.337 | 0.262 | 0.308 | 0.345 |
| HOP-62 | 1 | 0.888 | 1.16 | 1.01 | 1.1 | 0.745 | 0.957 | 0.993 | 0.978 | 0.888 | 0.918 | 0.907 | 0.938 | 0.906 | 0.673 | 0.64 | 0.706 | 0.646 |
| IA-LM | 0.836 | 0.908 | 0.776 | 0.836 | 0.718 | 0.983 | 0.718 | 0.86 | – | 0.719 | – | – | – | – | – | – | – | – |
| LC-2-ad | 0.317 | 0.446 | 0.518 | 0.453 | 0.394 | 0.791 | 0.883 | 0.724 | 0.839 | 0.607 | 0.942 | 0.959 | 0.869 | 0.331 | 0.529 | 0.547 | 0.674 | 0.649 |
| LCLC-97TM1 | – | 0.669 | 0.489 | 0.355 | 0.413 | – | 0.862 | 0.527 | 0.848 | 1.43 | 0.838 | 0.816 | 0.717 | 0.71 | 0.761 | 0.954 | 0.739 | 0.835 |
| LCLC-103H | – | – | – | – | – | – | – | – | – | – | 0.927 | 0.832 | 0.846 | 1.04 | 0.446 | 0.456 | 0.474 | 0.531 |
| LK-2 | 0.827 | 0.803 | 1.09 | 0.77 | 0.861 | 0.839 | 0.854 | 1 | 0.723 | 0.761 | 0.249 | 0.165 | 0.21 | 0.185 | 0.275 | 0.271 | 0.266 | 0.294 |
| LOU-NH91 | 0.732 | 0.766 | 0.808 | 0.562 | 0.832 | 0.724 | 0.806 | 0.804 | 0.522 | 0.785 | 0.299 | 0.36 | 0.315 | 0.375 | 0.539 | 0.62 | 0.569 | 0.599 |
| LU99A | 0.796 | 0.8 | 0.913 | 0.776 | 0.383 | 0.857 | 0.901 | 0.999 | 1 | 0.968 | 0.233 | 0.263 | 0.275 | 0.219 | 0.562 | 0.442 | 0.697 | 0.518 |
| LXF-289 | 0.804 | 0.961 | 0.976 | 0.948 | 0.912 | 0.788 | 0.838 | 0.932 | 0.923 | 0.892 | 0.651 | 0.683 | 0.675 | 0.504 | 0.233 | 0.231 | 0.194 | 0.224 |
| NCI-H23 | – | 0.852 | 0.915 | 0.773 | 0.472 | – | 0.959 | 1.28 | 0.861 | 1.01 | 0.209 | 0.206 | 0.187 | 0.142 | 0.634 | 0.692 | 0.785 | 0.601 |
| NCI-H322M | 1.1 | 1.08 | 1.19 | 1.37 | 1.23 | 0.565 | 0.502 | 0.605 | 0.628 | 0.673 | 0.814 | 0.949 | 0.944 | 0.759 | 0.238 | 0.271 | 0.278 | 0.26 |
| NCI-H358 | – | – | – | – | – | 0.349 | 0.516 | 0.412 | – | 0.39 | 0.222 | 0.374 | 0.352 | 0.311 | 0.139 | 0.145 | 0.161 | 0.156 |
| NCI-H441 | 0.562 | 0.567 | 1.29 | 0.591 | 1.05 | – | – | – | – | – | 0.327 | 0.394 | 0.259 | 0.301 | 0.609 | 0.674 | 0.558 | 0.495 |
| NCI-H522 | – | – | – | – | – | – | – | – | – | – | 1.21 | 1.1 | 1.04 | 1.28 | 0.877 | 0.818 | 0.915 | 0.9 |
| NCI-H650 | – | – | – | – | – | 0.888 | 0.754 | 0.726 | 0.688 | 1.1 | 0.768 | 0.803 | 0.75 | 0.89 | 0.446 | 0.524 | 0.509 | 0.44 |
| NCI-H661 | – | – | – | – | – | 0.493 | 0.457 | 0.436 | 0.468 | 0.691 | 0.841 | 0.948 | 0.927 | 0.393 | 0.742 | 0.802 | 0.925 | 0.749 |
| NCI-H1299 | – | 1.03 | 1.02 | 1.01 | 1.04 | 0.983 | 0.932 | 0.956 | 0.922 | 0.903 | – | – | – | – | – | – | – | – |
| NCI-H1563 | – | – | – | – | – | 0.697 | 0.824 | 0.935 | – | 0.897 | 0.554 | 0.455 | 0.542 | 0.555 | 0.382 | 0.541 | 0.453 | 0.475 |
| NCI-H1623 | – | – | – | – | – | – | – | – | – | – | 0.43 | 0.464 | 0.458 | 0.497 | 0.547 | 0.529 | 0.599 | 0.555 |
| NCI-H1703 | 0.978 | 0.474 | 0.234 | 0.214 | 0.296 | 1.18 | 0.432 | 0.379 | 0.216 | 0.315 | – | – | – | – | – | – | – | – |
| NCI-H2342 | – | – | – | – | – | – | – | – | – | – | 0.721 | 0.788 | 0.738 | 0.746 | 0.308 | 0.336 | 0.329 | 0.301 |
| SW 900 | – | – | – | – | – | – | – | – | – | – | 0.179 | 0.188 | 0.164 | 0.177 | 0.443 | 0.523 | 0.845 | 0.666 |

Reference: the supplement of paper PMC10307832
